From publication PMC6691788, “Design and synthesis of phthalazine-based compounds as potent anticancer agents with potential antiangiogenic activity via VEGFR-2 inhibition” (Journal of Enzyme Inhibition and Medicinal Chemistry, 2019)

Tests used:
CCRF-CEM = assay: NCI 60 cell panel SRB screen; format: cell-based, human; conditions: for GI50 / CC50 / activity at 10 µM: Homo sapiens; for CC50: 48 h, read-out: LC50 (the source's name); for activity at 10 µM: single dose 10 μM, read-out: percent cell growth promotion
HL-60(TB) = assay: NCI 60 cell panel SRB screen; format: cell-based; conditions: Homo sapiens; for GI50 / IC (TGI) / CC50: 5 log dose; for CC50: 48 h, read-out: LC50 (the source's name); for activity at 10 µM: single dose 10 μM, read-out: percent cell growth promotion
RPMI-8226 = assay: NCI 60 cell panel SRB screen; format: cell-based; conditions: Homo sapiens; for GI50 / IC (TGI) / CC50: RPMI-8226, 5 log dose; for CC50: 48 h, read-out: LC50 (the source's name); for activity at 10 µM: RPMI-8226, single dose 10 μM, read-out: percent cell growth promotion
SR = assay: NCI 60 cell panel SRB screen; format: cell-based; conditions: Homo sapiens; for GI50 / IC (TGI) / CC50: 5 log dose; for CC50: 48 h, read-out: LC50 (the source's name); for activity at 10 µM: single dose 10 μM, read-out: percent cell growth promotion
NCI-H226 = assay: NCI 60 cell panel SRB screen; format: cell-based; conditions: Homo sapiens; for GI50 / IC (TGI) / CC50: NCI-H226, 5 log dose; for CC50: 48 h, read-out: LC50 (the source's name); for activity at 10 µM: NCI-H226, single dose 10 μM, read-out: percent cell growth promotion
NCI-H322M = assay: NCI 60 cell panel SRB screen; format: cell-based; conditions: Homo sapiens; for GI50 / IC (TGI) / CC50: 5 log dose; for CC50: 48 h, read-out: LC50 (the source's name); for activity at 10 µM: single dose 10 μM, read-out: percent cell growth promotion
NCI-H460 = assay: NCI 60 cell panel SRB screen; format: cell-based; conditions: Homo sapiens; for GI50 / IC (TGI) / LC50 (concentration causing 50% cell kill): NCI-H460, 5 log dose; for LC50 (concentration causing 50% cell kill): 48 h; for activity at 10 µM: NCI-H460, single dose 10 μM, read-out: percent cell growth promotion
HCC-2998 = assay: NCI 60 cell panel SRB screen; format: cell-based; conditions: Homo sapiens; for GI50 / IC (TGI) / LC50 (50% lethal concentration): HCC-2998, 5 log dose; for LC50 (50% lethal concentration): 48 h; for activity at 10 µM: HCC-2998, single dose 10 μM, read-out: percent cell growth promotion
HT29 = assay: NCI 60 cell panel SRB screen; format: cell-based; conditions: Homo sapiens, HT-29; for GI50 / IC (TGI) / CC50: HT29, 5 log dose; for CC50: 48 h, read-out: LC50 (the source's name); for activity at 10 µM: HT29, single dose 10 μM, read-out: percent cell growth promotion
KM12 = assay: NCI 60 cell panel SRB screen; format: cell-based; conditions: Homo sapiens; for GI50 / IC (TGI) / CC50: KM12, 5 log dose; for CC50: 48 h, read-out: LC50 (the source's name); for activity at 10 µM: KM12, single dose 10 μM, read-out: percent cell growth promotion
SNB-19 = assay: NCI 60 cell panel SRB screen; format: cell-based; conditions: Homo sapiens; for GI50 / IC (TGI) / CC50: SNB-19, 5 log dose; for CC50: 48 h, read-out: LC50 (the source's name); for activity at 10 µM: SNB-19, single dose 10 μM, read-out: percent cell growth promotion
LOX IMVI = assay: NCI 60 cell panel SRB screen; format: cell-based; conditions: Homo sapiens; for CC50: 5 log dose, 48 h, read-out: LC50 (the source's name); for IC (TGI): read-out: TGI; for activity at 10 µM: read-out: percent cell growth promotion
SK-MEL-5 = assay: NCI 60 cell panel SRB screen; format: cell-based; conditions: Homo sapiens; for GI50: SK-MEL-5; for IC (TGI): SK-MEL-5, read-out: TGI; for activity at 10 µM: SK-MEL-5, read-out: percent cell growth promotion; for CC50: SK-MEL-5, 5 log dose, 48 h, read-out: LC50 (the source's name)
OVCAR-3 = assay: NCI 60 cell panel SRB screen; format: cell-based; conditions: Homo sapiens; for GI50 / IC (TGI) / CC50: OVCAR-3, 5 log dose; for CC50: 48 h, read-out: LC50 (the source's name); for activity at 10 µM: OVCAR-3, single dose 10 μM, read-out: percent cell growth promotion
OVCAR-8 = assay: NCI 60 cell panel SRB screen; format: cell-based; conditions: Homo sapiens; for GI50 / IC (TGI) / CC50: OVCAR-8, 5 log dose; for CC50: 48 h, read-out: LC50 (the source's name); for activity at 10 µM: OVCAR-8, single dose 10 μM, read-out: percent cell growth promotion
RXF 393 = assay: NCI 60 cell panel SRB screen; format: cell-based; conditions: Homo sapiens; for GI50 / IC (TGI) / CC50: RXF 393, 5 log dose; for CC50: 48 h, read-out: LC50 (the source's name); for activity at 10 µM: RXF 393, single dose 10 μM, read-out: percent cell growth promotion
TK-10 = assay: NCI 60 cell panel SRB screen; format: cell-based, human; conditions: for GI50 / CC50 / activity at 10 µM: Homo sapiens; for GI50 / CC50 / TGI: TK-10, 5 log dose; for CC50: 48 h, read-out: LC50 (the source's name); for activity at 10 µM: TK-10, single dose 10 μM, read-out: percent cell growth promotion
PC-3 = assay: NCI 60 cell panel SRB screen; format: cell-based; conditions: Homo sapiens; for GI50 / IC (TGI) / CC50: PC-3, 5 log dose; for CC50: 48 h, read-out: LC50 (the source's name); for activity at 10 µM: PC-3, single dose 10 μM, read-out: percent cell growth promotion
T-47D = assay: NCI 60 cell panel SRB screen; format: cell-based; conditions: Homo sapiens, T47D; for IC (TGI): read-out: TGI; for activity at 10 µM: read-out: percent cell growth promotion; for CC50: T-47D, 5 log dose, 48 h, read-out: LC50 (the source's name)
VEGFR-2 tyrosine kinase = target: T1, VEGFR-2 tyrosine kinase (Homo sapiens, UniProt P35968); assay: In vitro VEGFR-2 tyrosine kinase assay (BPS Bioscience); format: biochemical; conditions: read-out: VEGFR-2 % inhibition; 10 μM concentration
T1 construct: purchased BPS Bioscience 40301
T1 sequence (P35968 20-1356): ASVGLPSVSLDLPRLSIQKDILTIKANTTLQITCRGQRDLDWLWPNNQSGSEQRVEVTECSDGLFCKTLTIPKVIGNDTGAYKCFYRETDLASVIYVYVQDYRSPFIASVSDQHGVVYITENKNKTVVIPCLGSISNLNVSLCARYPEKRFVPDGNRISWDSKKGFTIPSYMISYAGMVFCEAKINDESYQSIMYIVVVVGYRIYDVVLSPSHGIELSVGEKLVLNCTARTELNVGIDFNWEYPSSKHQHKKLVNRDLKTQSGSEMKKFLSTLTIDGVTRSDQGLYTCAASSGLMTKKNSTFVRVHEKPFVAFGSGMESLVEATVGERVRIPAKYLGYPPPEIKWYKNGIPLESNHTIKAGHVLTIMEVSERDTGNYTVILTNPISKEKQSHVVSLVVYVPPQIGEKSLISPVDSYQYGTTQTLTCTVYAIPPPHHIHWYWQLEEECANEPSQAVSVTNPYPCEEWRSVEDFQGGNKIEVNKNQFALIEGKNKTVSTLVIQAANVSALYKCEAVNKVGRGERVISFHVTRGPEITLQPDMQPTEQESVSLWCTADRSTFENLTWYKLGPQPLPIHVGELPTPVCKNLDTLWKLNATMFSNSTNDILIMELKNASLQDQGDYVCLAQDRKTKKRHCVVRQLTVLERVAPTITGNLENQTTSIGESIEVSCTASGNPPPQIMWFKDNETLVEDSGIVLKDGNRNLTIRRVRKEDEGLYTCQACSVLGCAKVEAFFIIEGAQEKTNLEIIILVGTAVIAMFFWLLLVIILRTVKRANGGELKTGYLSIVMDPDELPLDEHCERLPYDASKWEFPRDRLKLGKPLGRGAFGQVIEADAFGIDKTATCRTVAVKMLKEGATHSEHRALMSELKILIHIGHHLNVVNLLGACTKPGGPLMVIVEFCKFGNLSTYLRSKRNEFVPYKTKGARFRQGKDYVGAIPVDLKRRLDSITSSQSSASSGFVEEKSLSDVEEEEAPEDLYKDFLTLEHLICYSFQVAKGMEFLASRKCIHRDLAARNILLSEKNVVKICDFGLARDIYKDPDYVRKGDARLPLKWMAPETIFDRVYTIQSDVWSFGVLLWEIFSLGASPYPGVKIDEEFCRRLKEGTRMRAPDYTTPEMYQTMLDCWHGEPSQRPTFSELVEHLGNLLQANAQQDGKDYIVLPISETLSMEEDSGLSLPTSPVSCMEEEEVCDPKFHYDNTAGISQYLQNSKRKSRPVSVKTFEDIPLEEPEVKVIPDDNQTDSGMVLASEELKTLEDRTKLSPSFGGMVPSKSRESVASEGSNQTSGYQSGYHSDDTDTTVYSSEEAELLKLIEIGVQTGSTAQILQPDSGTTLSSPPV
How it was run: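 For IC50, ADP formation after a 30-min 30 °C reaction was detected by ADP-Glo luminescence in duplicate, blank-subtracted and fitted as log inhibitor versus normalised response. The 10 µM single-dose test instead measured remaining ATP (Kinase-Glo Plus) after 40 min at 30 °C with poly(Glu,Tyr) substrate, 10 μM ATP, pH 7.4, 1% DMSO.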

## Cc1nnc(Nc2ccc(NC(=O)Nc3ccc(Cl)cc3)cc2)c2ccccc12 [Compound 6e, 1–(4-Chlorophenyl)-3–(4-(4-methylphthalazin-1-ylamino)phenyl)urea]
CCRF-CEM; 5 log dose
  TGI: 5.99 µM
  GI50: 2.38 µM
  CC50: > 100 µM
CCRF-CEM
  activity at 10 µM: 11%
HL-60(TB)
  GI50: 2.03 µM
  IC (TGI): 4.18 µM
  CC50: 8.64 µM
  activity at 10 µM: -34.8%
RPMI-8226
  GI50: 2.6 µM
  IC (TGI): 6.48 µM
  CC50: > 100 µM
  activity at 10 µM: -11.9%
SR
  GI50: 2.56 µM
  IC (TGI): 9.55 µM
  CC50: > 100 µM
  activity at 10 µM: -3.51%
NCI-H226
  GI50: 3.61 µM
  IC (TGI): 15.9 µM
  CC50: 64.6 µM
  activity at 10 µM: 71.9%
NCI-H322M
  GI50: 3.31 µM
  IC (TGI): 1.25 µM
  CC50: 69.5 µM
  activity at 10 µM: 47.8%
NCI-H460
  GI50: 3.46 µM
  IC (TGI): 11.7 µM
  LC50 (concentration causing 50% cell kill): 39.1 µM
  activity at 10 µM: 26.1%
HCC-2998
  GI50: 2.84 µM
  IC (TGI): 8.09 µM
  LC50 (50% lethal concentration): 27.8 µM
  activity at 10 µM: 40.5%
HT29
  GI50: 1.78 µM
  IC (TGI): 3.67 µM
  CC50: 7.56 µM
  activity at 10 µM: 2.24%
KM12
  GI50: 1.99 µM
  IC (TGI): 4.53 µM
  CC50: 11.1 µM
  activity at 10 µM: 14.1%
SNB-19
  GI50: 2.77 µM
  IC (TGI): 8.72 µM
  CC50: 56.6 µM
  activity at 10 µM: 16.2%
LOX IMVI
  GI50: 1.75 µM
  CC50: 6.11 µM
  IC (TGI): 3.27 µM
  activity at 10 µM: -27.3%
SK-MEL-5
  GI50: 1.85 µM
  IC (TGI): 3.5 µM
  activity at 10 µM: 52.3%
  CC50: 6.65 µM
OVCAR-3
  GI50: 1.87 µM
  IC (TGI): 3.99 µM
  CC50: 8.47 µM
  activity at 10 µM: 44.4%
OVCAR-8
  GI50: 3.35 µM
  IC (TGI): 9.32 µM
  CC50: 47.4 µM
  activity at 10 µM: 31.4%
RXF 393
  GI50: 2.17 µM
  IC (TGI): 4.13 µM
  CC50: 7.84 µM
  activity at 10 µM: -39.7%
TK-10
  GI50: 3.19 µM
  CC50: 33.7 µM
  activity at 10 µM: 51.7%
  TGI: 9.42 µM
PC-3
  GI50: 3.49 µM
  IC (TGI): 11.9 µM
  CC50: 62.7 µM
  activity at 10 µM: 22.8%
T-47D
  GI50: 2.06 µM
  IC (TGI): 5.08 µM
  activity at 10 µM: 8.43%
  CC50: 56.4 µM
VEGFR-2 tyrosine kinase
  inhibition at 10 µM: 19%

## O=C(Nc1ccc(Cl)cc1)Nc1ccc(Oc2nncc3ccccc23)cc1 [Compound 7b, 1–(4-Chlorophenyl)-3–(4-(phthalazin-1-yloxy)phenyl)urea]
CCRF-CEM; 5 log dose
  GI50: 0.32 µM
  CC50: > 100 µM
CCRF-CEM
  activity at 10 µM: 8.7%
HL-60(TB)
  GI50: 1.08 µM
  IC (TGI): 13.4 µM
  CC50: > 100 µM
  activity at 10 µM: 3.65%
RPMI-8226
  GI50: 0.48 µM
  IC (TGI): 4.58 µM
  CC50: > 100 µM
  activity at 10 µM: -0.08%
SR
  GI50: 0.4 µM
  IC (TGI): > 100 µM
  CC50: > 100 µM
  activity at 10 µM: 2.64%
NCI-H226
  GI50: 0.62 µM
  IC (TGI): 5.42 µM
  CC50: > 100 µM
  activity at 10 µM: -54.5%
NCI-H322M
  GI50: 2.6 µM
  IC (TGI): 9.51 µM
  CC50: 34.9 µM
  activity at 10 µM: 60.9%
NCI-H460
  GI50: 2.79 µM
  IC (TGI): 8.32 µM
  LC50 (concentration causing 50% cell kill): 45.5 µM
  activity at 10 µM: 21.5%
HCC-2998
  GI50: 1.84 µM
  IC (TGI): 3.48 µM
  LC50 (50% lethal concentration): 6.57 µM
  activity at 10 µM: -42.2%
HT29
  GI50: 0.46 µM
  IC (TGI): 2.39 µM
  CC50: > 100 µM
  activity at 10 µM: 0.52%
KM12
  GI50: 0.88 µM
  IC (TGI): 2.65 µM
  CC50: 7.38 µM
  activity at 10 µM: -32.3%
SNB-19
  GI50: 1.74 µM
  IC (TGI): 4.79 µM
  CC50: 58.3 µM
  activity at 10 µM: -76.5%
LOX IMVI
  GI50: 0.16 µM
  CC50: 1.63 µM
  IC (TGI): 0.45 µM
  activity at 10 µM: -77.3%
SK-MEL-5
  GI50: 1.02 µM
  IC (TGI): 2.81 µM
  activity at 10 µM: -43.3%
  CC50: 6.56 µM
OVCAR-3
  GI50: 0.35 µM
  IC (TGI): 1.15 µM
  CC50: 3.95 µM
  activity at 10 µM: -62.8%
OVCAR-8
  GI50: 1.1 µM
  IC (TGI): 13.6 µM
  CC50: > 100 µM
  activity at 10 µM: 19.4%
RXF 393
  GI50: 0.31 µM
  IC (TGI): 1.05 µM
  CC50: 3.74 µM
  activity at 10 µM: -91.2%
TK-10
  GI50: 2.12 µM
  CC50: 8.64 µM
  activity at 10 µM: 27.5%
  TGI: 4.28 µM
PC-3
  GI50: 1.64 µM
  IC (TGI): 6.08 µM
  CC50: 35.6 µM
  activity at 10 µM: -29%
T-47D
  GI50: 0.24 µM
  IC (TGI): 7.68 µM
  activity at 10 µM: 10.2%
  CC50: > 100 µM
VEGFR-2 tyrosine kinase
  inhibition at 10 µM: 13%
